Laboratory results published in BindingDB's records for patent US20230348450 (Genzyme, 2023).
Several values for one entry are separate records, joined by “and”; a condition that tells them apart may be missing. Equal entries are not always repeated.

Target: T1, Bisphosphoglycerate mutase (Homo sapiens, UniProt P07738)
T1 sequence (P07738 whole entry): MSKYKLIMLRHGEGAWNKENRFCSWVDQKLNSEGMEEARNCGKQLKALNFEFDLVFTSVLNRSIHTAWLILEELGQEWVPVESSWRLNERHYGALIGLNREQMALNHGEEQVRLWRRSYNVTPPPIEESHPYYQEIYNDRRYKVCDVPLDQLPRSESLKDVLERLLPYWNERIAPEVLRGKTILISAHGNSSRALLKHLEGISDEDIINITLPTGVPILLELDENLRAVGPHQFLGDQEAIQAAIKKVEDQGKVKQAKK
Assay: BPGM Synthase Assay
Procedure: To the assay plate was added Enzyme Solution (20 uL) to columns 2-22 and 24 of the assay plate. To columns 1 and 23 was added GAPDH Solution (20 uL). A separate compound plate was prepared at the desired concentrations and all wells were normalized with 5% DMSO. The compound plate was incubated for 30 minutes at RT. Next, the substrate solution (20 μL) was dispensed to all reaction wells and the plate was incubated for 60 minutes at RT. Koningic acid (1 μL) was added and the plate was incubated for 10 minutes at RT. […] Next, Resazurin Solution (10 μL) was added to all reaction wells and the plate was incubated for 30 minutes at RT.

Structure (SMILES)	IC50
Cc1nc(COc2ccc(F)cn2)sc1-c1cccc(-c2ccc(C(=O)O)c(O)c2)c1 [US20230348450, Example 1]	1500 nM and 1000 nM
Cc1nc(COc2ncccn2)sc1-c1cccc(-c2ccc(S(=O)(=O)CC(=O)O)cc2)n1 [US20230348450, Example 2]	146 nM
Cc1nc(COc2ncccn2)sc1-c1cccc(-c2cc(C(=O)O)cs2)n1 [US20230348450, Example 3]	260 nM and 180 nM
Cc1nc(COc2ccccn2)sc1-c1cccc(-c2ccc(C(=O)O)c(O)c2)c1 [US20230348450, Example 4]	590 nM and 710 nM
Cc1nc(COc2ncccn2)sc1-c1cccc(-c2ccc(C(=O)O)c(O)c2)n1 [US20230348450, Example 6]	70 nM
Cc1nc(COCC(=O)N(C)C)sc1-c1csc(-c2cc(O)c(C(=O)O)cc2F)n1 [US20230348450, Example 7]	60 nM
COC(=O)NCc1nc(C)c(-c2nsc(-c3cc(O)c(C(=O)O)cc3F)n2)s1 [US20230348450, Example 8]	95 nM
COC(=O)NCc1nc(C)c(-c2cccc(-c3ccc(C(=O)O)c(O)c3)n2)s1 [US20230348450, Example 9]	317 nM
CC(=O)NCc1nc(C)c(-c2csc(-c3cc(O)c(C(=O)O)cc3F)n2)s1 [US20230348450, Example 10]	95 nM
COC(=O)NCc1nc(C)c(-c2csc(-c3cc(O)c(C(=O)O)cc3F)n2)s1 [US20230348450, Example 209]	63 nM and 59 nM
